{
  "source": "patent US20090325287A1",
  "about": "“Methods for Obtaining High Viable Cell Density in Mammalian Cell Culture” (priority 2008, published 2009)",
  "key": {"caspase 3/7": {"tested_on": "caspase 3/7", "experiment": "Caspase 3/7 activity assay (APO-ONE) after staurosporine treatment", "type": "cell-based, Chinese Hamster", "details": "staurosporine 2 μM, 16 h", "experimental": "About 3×10^5 cells of each clone were seeded in one ml of growth medium in a 24-well plate. On day 4 (d4) post seeding, about 1×10^5 cells were transferred in triplicate to a 96 well plate. Staurosprine (2 μM fc) was added and the cells were incubated for 16 h before assaying for caspase3/7 activity by APO-ONE kit (BD Labs). The procedure was repeated on d10, except that Staurosporine was omitted. […] The apoptotic^R nature of the selected clones was confirmed by flow cytometry analysis (see below) and in some instances, by measuring the mitochondrial membrane potential.\nEach apoptotic^R cell line was examined for caspase 3/7 activity by APO-ONE as this activity provides an indication of the degree of resistance of a cell line to apoptosis. Briefly, in this assay, the profluorescent substrate Z-DEVD-R110 is cleaved by caspase 3/7 in a dose-dependent manner. Exponential cultures of EA167 and EAX197 as well as the control cell line were treated with staurosporine for 16 hours to induce apoptosis, following which caspase 3/7 was measured. The caspase 3/7 activity in staurosporine treated control cells was arbitrarily set at 100%. […] As further evidence of the apoptotic^R nature of EA167 and EAX197, staurosporine-treated cultures of these two cell lines and the control cell line, were labeled with FITC-conjugated anti-caspase 3 antibody followed by analysis by flow cytometry. […]"}, "caspase 3": {"tested_on": "caspase 3", "experiment": "Flow cytometry with FITC-labeled anti-caspase 3 antibody after staurosporine treatment", "type": "cell-based, Chinese Hamster", "details": "staurosporine 2 μM, 16 h", "experimental": "About 1×10^6 cells from exponential cultures were withdrawn from each shake flask into 24 well plates, incubated with Staurosporine (2 μM fc) for 16 h, harvested and washed once in PBS. The cells were then incubated with CytoPerm (Cat. No. 2075KK, BD BioScience) to fix and permeablized them. Following a PBS wash, cells were incubated with FITC-labeled anti-caspase3 (Cat. No. 68654, BD BioScience) antibody before subjecting them to analysis by flow cytometry.\nEach apoptotic^R cell line was examined for caspase 3/7 activity by APO-ONE as this activity provides an indication of the degree of resistance of a cell line to apoptosis. Briefly, in this assay, the profluorescent substrate Z-DEVD-R110 is cleaved by caspase 3/7 in a dose-dependent manner. Exponential cultures of EA167 and EAX197 as well as the control cell line were treated with staurosporine for 16 hours to induce apoptosis, following which caspase 3/7 was measured. The caspase 3/7 activity in staurosporine treated control cells was arbitrarily set at 100%. […] As further evidence of the apoptotic^R nature of EA167 and EAX197, staurosporine-treated cultures of these two cell lines and the control cell line, were labeled with FITC-conjugated anti-caspase 3 antibody followed by analysis by flow cytometry. […] However, 91% of the control cell population was positive for caspase 3 following staurosporine treatment. In contrast, only 9% of the population derived from cell line EAX197 and 30% of that derived from cell line EA167 were positive for caspase 3, confirming the apoptotic^R phenotype of these two cell lines."}},
  "data": [
    {"compound": "CN[C@@H]1C[C@H]2O[C@@](C)([C@@H]1OC)n1c3ccccc3c3c4c(c5c6ccccc6n2c5c31)C(=O)NC4", "note": "[staurosporine]", "values": [
      {"measurement": "caspase 3/7 activity, of staurosporine treated control cells (set at 100%)", "setting": "caspase 3/7; EA167 cells (CHOK1SV expressing E1B-19K + Aven)", "result": 30, "unit": "%"},
      {"measurement": "caspase 3/7 activity, of staurosporine treated control cells (set at 100%)", "setting": "caspase 3/7; EAX197 cells (CHOK1SV expressing E1B-19K + Aven + XIAPΔ)", "result": 35, "unit": "%"},
      {"measurement": "cell population positive for caspase 3", "setting": "caspase 3; EA167 cells", "result": 30, "unit": "%"},
      {"measurement": "cell population positive for caspase 3", "setting": "caspase 3; EAX197 cells", "result": 9, "unit": "%"},
      {"measurement": "cell population positive for caspase 3", "setting": "caspase 3; control cell line (CHOK1SV, C1013A)", "result": 91, "unit": "%"}
    ]}
  ]
}
